In patent US10519147B2 (Merck Sharp & Dohme Corp., priority 2015, dated 2019):

These compounds were tested against T1, human Nav1.5 (Homo sapiens, UniProt Q14524) (assay: IonWorks Quattro automated patch-clamp, Nav1.5 (selectivity against Nav1.7)). Settings: IonWorks measurement, HEK 293 cells, inactivated state block.
T1 construct: expressed in transfected cells; host or cells: HEK 293
T1 sequence (Q14524 whole entry): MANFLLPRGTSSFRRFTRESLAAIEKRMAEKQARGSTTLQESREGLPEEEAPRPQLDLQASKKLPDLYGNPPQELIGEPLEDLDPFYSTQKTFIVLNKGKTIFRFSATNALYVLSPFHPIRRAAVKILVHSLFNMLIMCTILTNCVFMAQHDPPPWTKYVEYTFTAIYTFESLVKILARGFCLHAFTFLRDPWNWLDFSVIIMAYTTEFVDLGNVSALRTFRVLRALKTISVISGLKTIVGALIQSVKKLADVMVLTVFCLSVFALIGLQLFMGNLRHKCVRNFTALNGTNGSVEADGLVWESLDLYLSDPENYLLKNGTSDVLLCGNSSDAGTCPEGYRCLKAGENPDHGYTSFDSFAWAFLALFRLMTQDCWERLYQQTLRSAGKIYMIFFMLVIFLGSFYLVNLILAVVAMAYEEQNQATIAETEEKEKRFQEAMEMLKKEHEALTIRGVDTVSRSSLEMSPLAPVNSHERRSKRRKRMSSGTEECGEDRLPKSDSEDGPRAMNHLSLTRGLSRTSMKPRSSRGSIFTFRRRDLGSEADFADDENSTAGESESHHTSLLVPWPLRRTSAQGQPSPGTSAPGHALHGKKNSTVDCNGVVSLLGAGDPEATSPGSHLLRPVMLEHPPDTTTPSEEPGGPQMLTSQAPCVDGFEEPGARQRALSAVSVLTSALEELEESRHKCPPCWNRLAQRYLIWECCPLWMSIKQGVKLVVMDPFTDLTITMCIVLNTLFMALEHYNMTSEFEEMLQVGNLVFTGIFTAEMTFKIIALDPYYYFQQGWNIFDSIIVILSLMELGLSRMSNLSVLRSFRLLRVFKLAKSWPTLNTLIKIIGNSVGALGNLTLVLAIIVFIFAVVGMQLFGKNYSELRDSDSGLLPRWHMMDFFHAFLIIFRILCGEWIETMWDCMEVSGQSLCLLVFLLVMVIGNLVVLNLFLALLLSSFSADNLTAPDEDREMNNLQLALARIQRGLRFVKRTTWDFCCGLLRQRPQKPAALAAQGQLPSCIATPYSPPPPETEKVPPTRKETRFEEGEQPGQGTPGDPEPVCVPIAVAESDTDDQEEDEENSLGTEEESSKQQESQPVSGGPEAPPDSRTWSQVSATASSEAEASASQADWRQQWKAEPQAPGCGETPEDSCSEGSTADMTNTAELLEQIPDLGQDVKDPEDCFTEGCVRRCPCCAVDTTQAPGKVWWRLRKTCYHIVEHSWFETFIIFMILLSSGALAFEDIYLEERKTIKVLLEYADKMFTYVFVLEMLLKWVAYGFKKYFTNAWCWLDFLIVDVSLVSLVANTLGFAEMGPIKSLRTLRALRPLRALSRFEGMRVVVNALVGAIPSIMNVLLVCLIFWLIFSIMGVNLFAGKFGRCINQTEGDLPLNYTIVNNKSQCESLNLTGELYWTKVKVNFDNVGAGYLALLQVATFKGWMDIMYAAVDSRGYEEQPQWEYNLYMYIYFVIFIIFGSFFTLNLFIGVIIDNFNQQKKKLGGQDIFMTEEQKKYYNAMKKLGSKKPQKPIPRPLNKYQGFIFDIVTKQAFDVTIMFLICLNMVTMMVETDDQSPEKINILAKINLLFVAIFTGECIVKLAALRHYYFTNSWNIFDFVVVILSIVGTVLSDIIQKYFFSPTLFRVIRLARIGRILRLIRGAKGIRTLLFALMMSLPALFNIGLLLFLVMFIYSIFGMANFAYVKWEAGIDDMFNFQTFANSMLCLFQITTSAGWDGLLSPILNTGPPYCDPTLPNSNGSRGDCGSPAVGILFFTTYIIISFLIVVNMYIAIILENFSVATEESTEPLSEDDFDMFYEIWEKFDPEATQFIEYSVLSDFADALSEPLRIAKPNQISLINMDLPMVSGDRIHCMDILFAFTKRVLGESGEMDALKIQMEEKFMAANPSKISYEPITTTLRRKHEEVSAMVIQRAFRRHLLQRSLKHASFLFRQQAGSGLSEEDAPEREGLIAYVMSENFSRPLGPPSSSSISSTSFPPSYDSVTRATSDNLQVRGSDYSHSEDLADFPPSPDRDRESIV
Assay type: cell-based
Protocol: (§1) Compounds were tested on human Nav1.7 and Nav1.5 channels stably expressed in HEK 293 cells. […] Cells were sealed on a planar substrate using the Population Patch […] (PPC) technology. Electrical access was obtained using both nystatin and amphotericin. A double-pulse protocol was used for the determination of IC50 values for inactivated state block. Nav1.7 and Nav1.5 expressing cells were voltage clamped at −100 mV and −110 mV, respectively. A depolarizing prepulse to −10 mV (Nav1.7) or −30 mV (Nav1.5) for 1000 ms followed by a 10 ms repolarization to −100 mV (Nav1.7) or −110 mV (Nav1.5) was given to generate fractional channel inactivation of 50%, followed by a 10 ms test pulse to −10 mV (Nav1.7) or −30 mV (Nav1.5) to measure peak current in control conditions and after compound addition. The following recording solutions were used (mM). External: 150 NaCl, 2 CaCl2, 5 KCl, 1 Mg Cl2, 10 HEPES, 12 Dextrose; internal: 120 CsF, 30 CsCl, 10 EGTA, 5 HEPES, 5 NaF, 2 MgCl2.
(§2) For all electrophysiology experiments, offline analysis was used to determine percent inhibition as a function of drug concentration. IC50 values were determined by fitting to the Hill equation.
In the case of `NC1CCC1NCCCCNc1cc(F)c(S(=O)(=O)Nc2ncns2)cc1Cl` (single isomer, unassigned) [Ex 16-82, 4-[4-[[(1S,2S) or (1R,2R)-2-aminocyclobutyl]amino]butylamino]-5-chloro-2-fluoro-N-(1,2,4-thiadiazol-5-yl) benzenesulfonamide], the “ratio of Nav 1.7 potency:Nav 1.5 potency” value is reported as > 10000.
With `NC1CCC1NCCCCNc1cc(F)c(S(=O)(=O)Nc2ncns2)cc1Cl` (single isomer, unassigned) [Ex 16-83, 4-[4-[[(1R,2R) or (1S,2S)-2-aminocyclobutyl]amino]butylamino]-5-chloro-2-fluoro-N-(1,2,4-thiadiazol-5-yl)benzenesulfonamide] the “ratio of Nav 1.7 potency:Nav 1.5 potency” value was > 7020.
With `O=S(=O)(Nc1nccs1)c1cc(Cl)c(NCCCCNC[C@@H]2CCCCN2)cc1F` [Ex 1-04, 5-chloro-2-fluoro-4-[(4-{[(2S)-piperidin-2-ylmethyl]amino}butyl)amino]-N-1,3-thiazol-2-yl-benzenesulfonamide] the “ratio of Nav 1.7 potency:Nav 1.5 potency” value was > 3440.
For `N[C@H]1CCCC[C@@H]1NCCCCNc1cc(F)c(S(=O)(=O)Nc2nccs2)cc1Cl` [Ex 1-07, 4-[(4-{[(1S,2S)-2-amino-cyclohexyl]amino}butyl)-amino]-5-chloro-2-fluoro-N-1,3-thiazol-2-yl-benzenesulfonamide], the “ratio of Nav 1.7 potency:Nav 1.5 potency” value was > 1800.

Same assay, conditions: IonWorks measurement, HEK 293 cells, inactivated state block; listed as Ex1-04
With `O=S(=O)(Nc1nccs1)c1cc(Cl)c(NCCCCNC[C@@H]2CCCCN2)cc1F` [Ex 1-04, 5-chloro-2-fluoro-4-[(4-{[(2S)-piperidin-2-ylmethyl]amino}butyl)amino]-N-1,3-thiazol-2-yl-benzenesulfonamide] the “ratio of Nav 1.7 potency:Nav 1.5 potency” value was 3440.

These compounds were tested against T2, human Nav1.7 (Homo sapiens, UniProt Q15858) (assay: IonWorks Quattro automated patch-clamp, inactivated state block of Nav1.7). Settings: channels stably expressed in HEK 293 cells; double-pulse protocol, inactivated state block; read-out: potency for the Nav 1.7 sodium ion channel (IC50, as measured by IonWorks).
T2 construct: expressed in transfected cells; host or cells: HEK 293
T2 sequence (Q15858 whole entry): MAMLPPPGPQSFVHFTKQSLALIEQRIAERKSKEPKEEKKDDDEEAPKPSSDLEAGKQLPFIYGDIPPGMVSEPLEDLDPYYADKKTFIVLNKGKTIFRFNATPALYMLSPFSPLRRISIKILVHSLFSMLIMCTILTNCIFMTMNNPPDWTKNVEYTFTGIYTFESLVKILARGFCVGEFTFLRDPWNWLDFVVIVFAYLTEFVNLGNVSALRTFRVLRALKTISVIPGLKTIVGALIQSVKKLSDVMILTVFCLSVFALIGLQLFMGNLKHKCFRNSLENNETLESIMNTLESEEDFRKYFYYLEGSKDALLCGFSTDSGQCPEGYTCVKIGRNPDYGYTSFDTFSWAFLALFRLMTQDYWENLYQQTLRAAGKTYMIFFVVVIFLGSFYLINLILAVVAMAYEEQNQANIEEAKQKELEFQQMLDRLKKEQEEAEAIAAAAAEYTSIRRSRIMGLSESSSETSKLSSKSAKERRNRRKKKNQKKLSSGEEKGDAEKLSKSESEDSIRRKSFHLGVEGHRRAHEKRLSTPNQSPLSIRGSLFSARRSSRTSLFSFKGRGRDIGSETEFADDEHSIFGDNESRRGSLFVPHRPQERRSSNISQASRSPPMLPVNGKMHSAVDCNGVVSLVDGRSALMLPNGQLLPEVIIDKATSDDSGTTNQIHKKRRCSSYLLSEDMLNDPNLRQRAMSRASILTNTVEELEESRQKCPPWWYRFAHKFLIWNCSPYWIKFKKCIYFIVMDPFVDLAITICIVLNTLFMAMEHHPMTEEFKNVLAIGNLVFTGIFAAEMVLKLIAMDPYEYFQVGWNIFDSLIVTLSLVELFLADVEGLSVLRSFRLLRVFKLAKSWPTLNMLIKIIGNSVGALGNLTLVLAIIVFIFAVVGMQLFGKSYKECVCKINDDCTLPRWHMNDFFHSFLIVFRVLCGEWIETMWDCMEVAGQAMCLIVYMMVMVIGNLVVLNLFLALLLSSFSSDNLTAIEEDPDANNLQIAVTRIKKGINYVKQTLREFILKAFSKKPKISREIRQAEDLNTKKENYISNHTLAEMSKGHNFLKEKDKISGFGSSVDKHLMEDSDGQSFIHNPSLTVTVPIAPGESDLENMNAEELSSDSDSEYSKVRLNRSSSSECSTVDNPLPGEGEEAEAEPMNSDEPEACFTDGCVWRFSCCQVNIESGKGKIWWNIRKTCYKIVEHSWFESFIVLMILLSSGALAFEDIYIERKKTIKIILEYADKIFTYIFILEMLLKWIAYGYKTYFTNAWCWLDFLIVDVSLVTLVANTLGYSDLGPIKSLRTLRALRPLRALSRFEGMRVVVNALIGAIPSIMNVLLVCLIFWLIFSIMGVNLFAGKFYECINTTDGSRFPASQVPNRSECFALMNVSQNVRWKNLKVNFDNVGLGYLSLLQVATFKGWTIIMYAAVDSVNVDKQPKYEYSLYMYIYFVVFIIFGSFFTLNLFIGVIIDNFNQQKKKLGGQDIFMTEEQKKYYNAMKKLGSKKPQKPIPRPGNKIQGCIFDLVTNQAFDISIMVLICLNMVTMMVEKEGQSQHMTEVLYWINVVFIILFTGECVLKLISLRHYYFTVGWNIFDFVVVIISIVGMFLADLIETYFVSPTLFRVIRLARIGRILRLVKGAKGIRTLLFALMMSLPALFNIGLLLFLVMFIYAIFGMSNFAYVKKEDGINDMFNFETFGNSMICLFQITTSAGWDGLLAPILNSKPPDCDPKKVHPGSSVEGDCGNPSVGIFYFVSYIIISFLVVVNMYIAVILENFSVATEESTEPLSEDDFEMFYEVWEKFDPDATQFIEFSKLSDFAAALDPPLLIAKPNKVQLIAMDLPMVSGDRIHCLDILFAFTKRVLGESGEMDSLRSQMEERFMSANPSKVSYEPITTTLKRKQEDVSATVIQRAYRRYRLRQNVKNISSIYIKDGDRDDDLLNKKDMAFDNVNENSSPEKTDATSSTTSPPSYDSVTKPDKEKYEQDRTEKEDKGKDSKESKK
Assay type: cell-based
Protocol: as §1, §2
`NC1CCC1NCCCCNc1cc(F)c(S(=O)(=O)Nc2ncns2)cc1Cl` (single isomer, unassigned) [Ex 16-82, 4-[4-[[(1S,2S) or (1R,2R)-2-aminocyclobutyl]amino]butylamino]-5-chloro-2-fluoro-N-(1,2,4-thiadiazol-5-yl) benzenesulfonamide] gave an IC50 of 3.3 nM.
Work on `NC1CCC1NCCCCNc1cc(F)c(S(=O)(=O)Nc2ncns2)cc1Cl` (single isomer, unassigned) [Ex 16-83, 4-[4-[[(1R,2R) or (1S,2S)-2-aminocyclobutyl]amino]butylamino]-5-chloro-2-fluoro-N-(1,2,4-thiadiazol-5-yl)benzenesulfonamide] yielded an IC50 of 4.7 nM.
Work on `O=S(=O)(Nc1nccs1)c1cc(Cl)c(NCCCCNC[C@@H]2CCCCN2)cc1F` [Ex 1-04, 5-chloro-2-fluoro-4-[(4-{[(2S)-piperidin-2-ylmethyl]amino}butyl)amino]-N-1,3-thiazol-2-yl-benzenesulfonamide] yielded an IC50 of 9.6 nM.
Compound `N[C@H]1CCCC[C@@H]1NCCCCNc1cc(F)c(S(=O)(=O)Nc2nccs2)cc1Cl` [Ex 1-07, 4-[(4-{[(1S,2S)-2-amino-cyclohexyl]amino}butyl)-amino]-5-chloro-2-fluoro-N-1,3-thiazol-2-yl-benzenesulfonamide] has an IC50 of 18 nM.
Work on `CNCCNCCCCNc1cc(F)c(S(=O)(=O)Nc2ncc(Cl)s2)cc1Cl` [Ex 16-49, 5-chloro-N-(5-chloro-1,3-thiazol-2-yl)-2-fluoro-4-[(4-{[2-(methylamino)ethyl]-amino}butyl)amino] benzene-sulfonamide] yielded an IC50 of 14 nM.
For `CNCCNCCCCNc1cc(F)c(S(=O)(=O)Nc2nccs2)cc1Br` [Ex 16-50, 5-bromo-2-fluoro-4-[(4-{[2-(methylamino)ethyl]amino}-butyl)amino]-N-1,3-thiazol-2-ylbenzenesulfonamide], the IC50 was 11 nM.
Compound `CNCCCNCCCCNc1cc(F)c(S(=O)(=O)Nc2nccs2)cc1Br` [Ex 16-55, 5-bromo-2-fluoro-4-[(4-{[3-(methylamino)propyl]amino}butyl)amino]-N-1,3-thiazol-2-ylbenzenesulfonamide] has an IC50 of 18 nM.
`CNCCCNCCCCNc1cc(F)c(S(=O)(=O)Nc2ncc(F)s2)cc1Br` [Ex 16-56, 5-bromo-2-fluoro-N-(5-fluoro-1,3-thiazol-2-yl)-4-[(4-{[3-(methylamino)-propyl]amino}butyl)amino]-benzenesulfonamide] gave an IC50 of 12 nM.
`O=S(=O)(Nc1ncns1)c1cc(Cl)c(NCCCCNCCCNCCF)cc1F` [Ex 16-58, 5-chloro-2-fluoro-4-{[4-({3-[(2-fluoroethyl)amino]-propyl}amino)butyl]amino}-N-1,2,4-thiadiazol-5-yl-benzenesulfonamide] showed an IC50 of 37 nM.
In the case of `C[C@H](CN)NCCCCNc1cc(F)c(S(=O)(=O)Nc2ncns2)cc1Cl` [Ex 16-60, 4-[(4-{[(1R)-2-amino-1-methylethyl]amino}butyl)-amino]-5-chloro-2-fluoro-N-1,2,4-thiadiazol-5-yl-benzenesulfonamide], the IC50 is reported as 11 nM.
`CC(C)(CN)NCCCCNc1cc(F)c(S(=O)(=O)Nc2ncc(F)s2)cc1Cl` [Ex 16-61, 4-({4-[(2-amino-1,1-dimethylethyl)amino]butyl}amino)-5-chloro-2-fluoro-N-(5-fluoro-1,3-thiazol-2-yl)benzenesulfonamide] gave an IC50 of 21 nM.
With `NC1(CNCCCCNc2cc(F)c(S(=O)(=O)Nc3ncc(F)s3)cc2Cl)CC1` [Ex 16-63, 4-[(4-{[(1-aminocyclopropyl)methyl]amino}butyl)amino]-5-chloro-2-fluoro-N-(5-fluoro-1,3-thiazol-2-yl)benzenesulfonamide] the IC50 was 56 nM.
`CN[C@H](C)CNCCCCNc1cc(F)c(S(=O)(=O)Nc2ncc(F)s2)cc1Cl` [Ex 16-65, 5-chloro-2-fluoro-N-(5-fluoro-1,3-thiazol-2-yl)-4-[(4-{[(2R)-2-(methylamino)propyl]amino}butyl)amino] benzenesulfonamide] was tested, and the IC50 was 28 nM.
Work on `C[C@@H](CN)NCCCCNc1cc(F)c(S(=O)(=O)Nc2ncc(F)s2)cc1Cl` [Ex 16-66, 4-[(4-{[(1S)-2-amino-1-methylethyl]amino}butyl)amino]-5-chloro-2-fluoro-N-(5-fluoro-1,3-thiazol-2-yl)benzenesulfonamide] yielded an IC50 of 16 nM.
`C[C@@H](CN)NCCCCNc1cc(F)c(S(=O)(=O)Nc2ncns2)cc1Cl` [Ex 16-67, 4-[(4-{[(1S)-2-amino-1-methylethyl]amino}butyl)amino]-5-chloro-2-fluoro-N-1,2,4-thiadiazol-5-ylbenzenesulfonamide] gave an IC50 of 16 nM.
With `NC1(CNCCCCNc2cc(F)c(S(=O)(=O)Nc3ncc(F)s3)cc2Cl)CCC1` [Ex 16-69, 4-[(4-{[(1-aminocyclobutyl)methyl]amino}butyl)amino]-5-chloro-2-fluoro-N-(5-fluoro-1,3-thiazol-2-yl)benzenesulfonamide] the IC50 was 18 nM.
`N[C@H]1CCC[C@@H]1NCCCCNc1cc(F)c(S(=O)(=O)Nc2nccs2)cc1Cl` [Ex 16-72, 4-[(4-{[(1S,2S)-2-aminocyclopentyl]amino}butyl)amino]-5-chloro-2-fluoro-N-1,3-thiazol-2-ylbenzenesulfonamide] was tested, and the IC50 was 11 nM.
`O=S(=O)(Nc1ncc(F)s1)c1cc(Cl)c(NCCCCNC[C@H]2CCN2)cc1F` [Ex 16-73, 4-[(4-{[(2R)-azetidin-2-ylmethyl]amino}butyl)amino]-5-chloro-2-fluoro-N-(5-fluoro-1,3-thiazol-2-yl)benzenesulfonamide] gave an IC50 of 19 nM.
In the case of `C[C@H](CN)NCCCCNc1cc(F)c(S(=O)(=O)Nc2ncns2)cc1Br` [Ex 16-78, 4-[(4-{[(1R)-2-amino-1-methylethyl]amino}butyl)amino]-5-bromo-2-fluoro-N-1,2,4-thiadiazol-5-ylbenzenesulfonamide], the IC50 is reported as 12 nM.
With `NC1(CNCCCCNc2cc(F)c(S(=O)(=O)Nc3ncns3)cc2Br)CC1` [Ex 16-89, 4-[4-[(1-aminocyclopropyl)methylamino]butylamino]-5-bromo-2-fluoro-N-(1,2,4-thiadiazol-5-yl)benzenesulfonamide] the IC50 was 12 nM.
`CNCCNCCCCNc1cc(F)c(S(=O)(=O)Nc2ncns2)cc1Br` [Ex 16-90, 5-bromo-2-fluoro-4-[4-[2-(methylamino)ethylamino]butylamino]-N-(1,2,4-thiadiazol-5-yl)benzenesulfonamide] gave an IC50 of 5.1 nM.
In the case of `CNCCCNCCCCNc1cc(F)c(S(=O)(=O)Nc2ncns2)cc1Br` [Ex 16-91, 5-bromo-2-fluoro-4-[4-[3-(methylamino)propylamino]butylamino]-N-(1,2,4-thiadiazol-5-yl)benzenesulfonamide], the IC50 is reported as 14 nM.
Compound `CC1(NCCCCNc2cc(F)c(S(=O)(=O)Nc3ncns3)cc2Br)CCNC1` (stereo not drawn) [Ex 16-96, 5-bromo-2-fluoro-4-[4-[(3-methylpyrrolidin-3-yl)amino]butylamino]-N-(1,2,4-thiadiazol-5-yl)benzenesulfonamide] has an IC50 of 15 nM.
In the case of `NCCCNCCCCNc1cc(F)c(S(=O)(=O)Nc2ncns2)cc1Br` [Ex 16-97, 4-[4-(3-aminopropylamino)butylamino]-5-bromo-2-fluoro-N-(1,2,4-thiadiazol-5-yl)benzenesulfonamide], the IC50 is reported as 18 nM.
In the case of `O=S(=O)(Nc1ncns1)c1cc(Br)c(NCCCCN[C@H]2CCNC2)cc1F` [Ex 16-100, (S)-5-bromo-2-fluoro-4-((4-(pyrrolidin-3-ylamino)butyl)amino)-N-(1,2,4-thiadiazol-5-yl)benzenesulfonamide], the IC50 is reported as 15 nM.
